The text below walks through data of paper PMC3292421 (International Journal of Nanomedicine, 2012).

Read-outs that look alike come from different tables or passages of the source.

The conditions of series [1]: 25°C.
Series [2] concerns P-glycoprotein. Particulars: cited from earlier work.
For series [3] the following is noted: long-term animal studies; cited from earlier work.

`O=C1Nc2ccccc2/C1=C1/Nc2ccccc2C1=O` [indirubin]: the Solubility amounted to 1.305 µmol/g in series [1] (in Cremophor EL (surfactant)); 0.631 µmol/g in series [1] (in Cremophor RH40 (surfactant)); 0.154 µmol/g in series [1] (in GTCC (caprylic/capric triglyceride, oil)); 0.087 µmol/g in series [1] (in IPM (isopropyl myristate, oil)); 0.159 µmol/g in series [1] (in Labrafac Lipophile WL1349 (oil)); 0.338 µmol/g in series [1] (in Labrafil M2125CS (oil)). In addition, the Solubility in series [1] (in Maisine 35-1 (oil)) turned out to be 0.755 µmol/g; in series [1] (in Olive oil (oil)) it was 0.145 µmol/g; in series [1] (in PEG 200 (cosurfactant)), 0.093 µmol/g; in series [1] (in PEG 400 (cosurfactant)), 0.143 µmol/g; in series [1] (in Transcutol P (cosurfactant)) it was 1.356 µmol/g. Besides, the “Influence of P-glycoprotein on transport through the rat intestine membrane” value in series [2] is “not influenced”. In series [3], the “Bone marrow toxicity and hematotoxicity” value is recorded as “neither bone marrow toxicity nor hematotoxicity”.
